In US11208412B2 (DAEGU-GYEONGBUK MEDICAL INNOVATION FOUNDATION, priority 2017, dated 2021) one finds remaining binding data, which are given here for 3 compounds.

Where two headings read alike, the source gives them in different places.

Holding throughout (assay): Kinase selectivity, DiscoverX scanMAX Kinase assay panel (% control)
Common to all, as to type: binding

Experiment [1] has as its target T1, kinases of the scanMAX Kinase assay panel (Homo sapiens, UniProt Q9Y3S1).
T1 construct: purchased DiscoverX Co. (contract measurement) scanMAX Kinase assay panel
The note with it: kinase WNK2; 1 uM in DMSO. The gist of the method: (§1)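 Single-point screen, 1 uM cpd in DMSO. % ctrl = (cpd − pos ctrl)/(neg ctrl − pos ctrl)×100; pos ctrl = 0%, DMSO neg ctrl = 100%. Hit cutoff <35%.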

Experiment [2] has as its target T2, kinases of the scanMAX Kinase assay panel (Homo sapiens, UniProt P42336, E545K).
T2 construct: purchased DiscoverX Co. (contract measurement) scanMAX Kinase assay panel
The note with it: PIK3CA(E545K); 1 uM. The gist of the method:
as §1

Experiment [3] deals with T3, kinases of the scanMAX Kinase assay panel (Homo sapiens, UniProt Q9H4B4).
T3 construct: purchased DiscoverX Co. (contract measurement) scanMAX Kinase assay panel
T3 sequence (Q9H4B4 whole entry): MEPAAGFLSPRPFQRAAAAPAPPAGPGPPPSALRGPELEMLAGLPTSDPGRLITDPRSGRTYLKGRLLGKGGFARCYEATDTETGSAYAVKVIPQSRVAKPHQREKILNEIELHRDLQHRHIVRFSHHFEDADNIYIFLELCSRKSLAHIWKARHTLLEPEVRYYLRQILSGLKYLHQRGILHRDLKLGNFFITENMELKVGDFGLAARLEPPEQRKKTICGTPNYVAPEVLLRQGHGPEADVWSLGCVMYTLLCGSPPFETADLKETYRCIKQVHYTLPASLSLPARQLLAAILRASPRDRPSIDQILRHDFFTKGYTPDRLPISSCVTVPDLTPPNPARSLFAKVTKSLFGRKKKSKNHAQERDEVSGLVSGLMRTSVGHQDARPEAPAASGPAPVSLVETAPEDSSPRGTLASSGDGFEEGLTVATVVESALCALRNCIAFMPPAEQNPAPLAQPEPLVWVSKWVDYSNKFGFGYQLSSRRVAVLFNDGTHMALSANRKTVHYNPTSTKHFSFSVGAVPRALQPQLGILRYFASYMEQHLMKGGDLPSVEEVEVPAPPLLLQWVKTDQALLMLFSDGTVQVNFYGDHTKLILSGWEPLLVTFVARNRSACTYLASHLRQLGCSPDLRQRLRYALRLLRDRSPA
The note with it: PLK3; 1 uM. The gist of the method:
as §1

For experiment [4], the target named is T4, kinases of the scanMAX Kinase assay panel (Homo sapiens, UniProt Q9UQM7).
T4 construct: purchased DiscoverX Co. (contract measurement) scanMAX Kinase assay panel
T4 sequence (Q9UQM7 whole entry): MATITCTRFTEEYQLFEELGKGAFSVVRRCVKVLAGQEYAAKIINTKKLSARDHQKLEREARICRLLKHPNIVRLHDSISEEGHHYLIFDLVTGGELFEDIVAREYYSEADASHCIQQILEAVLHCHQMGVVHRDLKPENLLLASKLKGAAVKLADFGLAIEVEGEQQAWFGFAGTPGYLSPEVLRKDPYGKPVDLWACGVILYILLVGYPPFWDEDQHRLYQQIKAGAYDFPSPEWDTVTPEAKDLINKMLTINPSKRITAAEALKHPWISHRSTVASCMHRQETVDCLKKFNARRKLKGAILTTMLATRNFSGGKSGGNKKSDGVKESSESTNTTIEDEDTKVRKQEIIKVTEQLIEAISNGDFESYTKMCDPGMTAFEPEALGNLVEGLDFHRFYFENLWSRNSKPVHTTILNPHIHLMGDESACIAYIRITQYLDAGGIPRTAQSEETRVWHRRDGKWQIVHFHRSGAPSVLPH
To be noted: CAMK2A; 1 uM. In a few lines: as §1

Experiment [5] deals with T5, kinases of the scanMAX Kinase assay panel (Homo sapiens, UniProt Q96L34).
T5 construct: purchased DiscoverX Co. (contract measurement) scanMAX Kinase assay panel
T5 sequence (Q96L34 1-752): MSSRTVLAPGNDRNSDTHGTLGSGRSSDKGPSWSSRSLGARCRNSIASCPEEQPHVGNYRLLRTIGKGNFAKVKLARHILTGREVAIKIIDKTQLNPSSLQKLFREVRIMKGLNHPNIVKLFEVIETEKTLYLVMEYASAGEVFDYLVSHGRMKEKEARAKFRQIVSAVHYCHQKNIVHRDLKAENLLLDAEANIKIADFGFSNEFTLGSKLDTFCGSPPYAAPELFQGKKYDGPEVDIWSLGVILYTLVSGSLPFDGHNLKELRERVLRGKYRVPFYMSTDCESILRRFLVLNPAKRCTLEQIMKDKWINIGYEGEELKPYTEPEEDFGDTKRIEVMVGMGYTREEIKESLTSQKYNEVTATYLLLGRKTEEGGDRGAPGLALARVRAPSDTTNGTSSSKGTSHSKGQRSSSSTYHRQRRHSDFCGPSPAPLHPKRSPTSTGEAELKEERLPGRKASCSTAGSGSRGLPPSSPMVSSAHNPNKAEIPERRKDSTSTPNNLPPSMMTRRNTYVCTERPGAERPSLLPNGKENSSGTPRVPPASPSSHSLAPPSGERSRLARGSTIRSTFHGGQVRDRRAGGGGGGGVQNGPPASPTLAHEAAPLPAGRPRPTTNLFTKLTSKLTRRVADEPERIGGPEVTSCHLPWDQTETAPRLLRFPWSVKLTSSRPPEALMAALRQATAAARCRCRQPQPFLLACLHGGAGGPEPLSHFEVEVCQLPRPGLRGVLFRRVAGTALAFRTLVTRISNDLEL
The note with it: MARK4; 1 uM. In a few lines:
as §1

The target of experiment [6] is T6, kinases of the scanMAX Kinase assay panel (Homo sapiens, UniProt P29317).
T6 construct: purchased DiscoverX Co. (contract measurement) scanMAX Kinase assay panel
T6 sequence (P29317 24-976): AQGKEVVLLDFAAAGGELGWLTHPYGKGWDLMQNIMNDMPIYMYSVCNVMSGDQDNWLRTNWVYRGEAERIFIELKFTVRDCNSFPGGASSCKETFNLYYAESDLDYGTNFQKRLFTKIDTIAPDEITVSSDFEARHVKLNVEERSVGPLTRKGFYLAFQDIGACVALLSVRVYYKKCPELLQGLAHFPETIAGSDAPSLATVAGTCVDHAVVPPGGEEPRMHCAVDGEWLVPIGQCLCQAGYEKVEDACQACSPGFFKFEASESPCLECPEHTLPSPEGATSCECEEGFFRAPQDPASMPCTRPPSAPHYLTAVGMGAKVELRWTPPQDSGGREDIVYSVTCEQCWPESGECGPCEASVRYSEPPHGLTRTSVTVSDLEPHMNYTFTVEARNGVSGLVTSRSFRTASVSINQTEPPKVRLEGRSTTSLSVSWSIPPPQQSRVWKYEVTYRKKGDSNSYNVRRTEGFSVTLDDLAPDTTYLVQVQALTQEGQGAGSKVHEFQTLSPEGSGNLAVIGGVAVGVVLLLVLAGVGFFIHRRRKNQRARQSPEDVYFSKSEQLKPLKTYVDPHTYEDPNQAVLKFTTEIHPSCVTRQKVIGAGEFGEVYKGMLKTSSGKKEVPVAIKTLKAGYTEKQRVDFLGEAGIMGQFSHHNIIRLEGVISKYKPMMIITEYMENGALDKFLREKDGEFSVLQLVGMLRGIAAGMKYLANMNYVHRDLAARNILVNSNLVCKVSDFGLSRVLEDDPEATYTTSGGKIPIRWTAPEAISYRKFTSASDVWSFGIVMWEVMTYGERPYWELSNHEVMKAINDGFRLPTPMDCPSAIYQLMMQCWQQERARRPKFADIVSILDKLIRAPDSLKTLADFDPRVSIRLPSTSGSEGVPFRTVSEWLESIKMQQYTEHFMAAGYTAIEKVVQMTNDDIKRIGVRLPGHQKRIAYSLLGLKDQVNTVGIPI
The note with it: EPHA2; 1 uM. In a few lines:
as §1

Experiment [7] deals with T7, kinases of the scanMAX Kinase assay panel (Homo sapiens, UniProt O76039).
T7 construct: purchased DiscoverX Co. (contract measurement) scanMAX Kinase assay panel
T7 sequence (O76039 1-960): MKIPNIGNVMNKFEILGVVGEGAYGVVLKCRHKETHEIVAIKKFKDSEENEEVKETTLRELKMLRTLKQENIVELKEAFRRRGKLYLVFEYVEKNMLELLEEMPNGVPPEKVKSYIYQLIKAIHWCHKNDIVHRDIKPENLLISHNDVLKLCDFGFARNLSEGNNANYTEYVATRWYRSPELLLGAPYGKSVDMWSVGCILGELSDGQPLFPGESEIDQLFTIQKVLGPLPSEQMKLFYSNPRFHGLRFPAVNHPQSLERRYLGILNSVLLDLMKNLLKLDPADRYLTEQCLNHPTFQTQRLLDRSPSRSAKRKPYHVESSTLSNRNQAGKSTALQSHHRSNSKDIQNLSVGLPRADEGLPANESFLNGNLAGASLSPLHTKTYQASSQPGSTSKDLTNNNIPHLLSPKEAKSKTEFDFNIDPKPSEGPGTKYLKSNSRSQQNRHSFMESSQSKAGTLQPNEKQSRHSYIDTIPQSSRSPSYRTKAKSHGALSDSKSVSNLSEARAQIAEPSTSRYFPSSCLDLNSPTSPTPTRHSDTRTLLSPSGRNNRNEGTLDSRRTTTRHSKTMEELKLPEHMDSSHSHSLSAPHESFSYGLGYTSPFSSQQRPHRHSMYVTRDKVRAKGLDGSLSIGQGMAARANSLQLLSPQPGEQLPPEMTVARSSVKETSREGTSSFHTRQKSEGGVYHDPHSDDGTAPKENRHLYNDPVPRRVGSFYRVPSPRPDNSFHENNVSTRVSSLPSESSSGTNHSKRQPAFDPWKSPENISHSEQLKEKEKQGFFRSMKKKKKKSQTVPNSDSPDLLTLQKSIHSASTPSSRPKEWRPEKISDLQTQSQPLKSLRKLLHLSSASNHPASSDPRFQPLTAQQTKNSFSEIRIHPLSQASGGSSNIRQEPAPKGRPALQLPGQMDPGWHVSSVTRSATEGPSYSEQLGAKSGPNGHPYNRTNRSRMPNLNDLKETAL
The note with it: CDKL5; 1 uM. The gist of the method: as §1

For experiment [8], the target named is T8, kinases of the scanMAX Kinase assay panel (Homo sapiens, UniProt Q9UK32).
T8 construct: purchased DiscoverX Co. (contract measurement) scanMAX Kinase assay panel
T8 sequence (Q9UK32 whole entry): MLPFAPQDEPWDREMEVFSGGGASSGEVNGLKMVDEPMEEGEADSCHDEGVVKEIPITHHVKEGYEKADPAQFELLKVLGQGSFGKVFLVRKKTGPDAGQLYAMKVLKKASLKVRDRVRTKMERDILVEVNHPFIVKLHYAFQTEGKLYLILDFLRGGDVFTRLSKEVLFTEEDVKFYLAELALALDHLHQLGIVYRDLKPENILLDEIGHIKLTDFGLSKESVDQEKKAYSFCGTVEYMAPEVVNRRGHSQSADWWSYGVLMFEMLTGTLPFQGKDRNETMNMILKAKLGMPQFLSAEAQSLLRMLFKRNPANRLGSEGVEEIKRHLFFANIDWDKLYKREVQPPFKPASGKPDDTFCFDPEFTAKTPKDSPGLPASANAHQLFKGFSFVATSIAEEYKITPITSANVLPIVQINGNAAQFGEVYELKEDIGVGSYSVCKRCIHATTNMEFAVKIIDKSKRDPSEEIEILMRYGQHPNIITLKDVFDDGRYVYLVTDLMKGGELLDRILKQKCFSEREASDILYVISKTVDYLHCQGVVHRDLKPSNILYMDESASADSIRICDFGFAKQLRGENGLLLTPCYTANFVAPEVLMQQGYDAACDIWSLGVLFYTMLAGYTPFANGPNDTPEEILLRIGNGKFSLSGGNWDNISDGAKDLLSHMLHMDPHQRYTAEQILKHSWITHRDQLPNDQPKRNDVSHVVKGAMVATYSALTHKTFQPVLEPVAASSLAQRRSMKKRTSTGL
To be noted: 1 uM in DMSO. The gist of the method:
as §1

Experiment [9] has as its target T9, kinases of the scanMAX Kinase assay panel (Homo sapiens, UniProt Q9HBH9).
T9 construct: purchased DiscoverX Co. (contract measurement) scanMAX Kinase assay panel
To be noted: MKNK2; 1 uM. In a few lines:
as §1

The target of experiment [10] is T10, kinases of the scanMAX Kinase assay panel (Homo sapiens, UniProt P42338).
T10 construct: purchased DiscoverX Co. (contract measurement) scanMAX Kinase assay panel
To be noted: PIK3CB; 1 uM. In a few lines: as §1

Experiment [11] deals with T11, kinases of the scanMAX Kinase assay panel (Homo sapiens, UniProt P53671).
T11 construct: purchased DiscoverX Co. (contract measurement) scanMAX Kinase assay panel
T11 sequence (P53671 whole entry): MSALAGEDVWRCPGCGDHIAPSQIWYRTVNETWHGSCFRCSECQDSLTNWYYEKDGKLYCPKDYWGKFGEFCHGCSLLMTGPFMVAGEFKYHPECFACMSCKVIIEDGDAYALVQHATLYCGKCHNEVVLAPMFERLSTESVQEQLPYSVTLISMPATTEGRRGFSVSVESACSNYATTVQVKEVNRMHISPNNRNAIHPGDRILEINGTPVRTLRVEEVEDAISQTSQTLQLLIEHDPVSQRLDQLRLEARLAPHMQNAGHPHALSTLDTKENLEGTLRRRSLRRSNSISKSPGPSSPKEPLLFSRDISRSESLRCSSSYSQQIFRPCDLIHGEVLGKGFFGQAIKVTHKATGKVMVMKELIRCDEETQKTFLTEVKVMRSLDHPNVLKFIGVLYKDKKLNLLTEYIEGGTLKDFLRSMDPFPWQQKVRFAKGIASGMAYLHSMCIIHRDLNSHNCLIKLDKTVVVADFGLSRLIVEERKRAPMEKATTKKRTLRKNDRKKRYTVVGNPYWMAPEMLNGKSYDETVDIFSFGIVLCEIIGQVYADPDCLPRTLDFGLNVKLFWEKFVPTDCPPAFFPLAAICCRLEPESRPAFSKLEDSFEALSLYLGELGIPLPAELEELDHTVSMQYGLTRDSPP
To be noted: LIMK2; 1 uM. The gist of the method:
as §1

For experiment [12], the target named is T12, kinases of the scanMAX Kinase assay panel (Homo sapiens, UniProt Q05397).
T12 construct: purchased DiscoverX Co. (contract measurement) scanMAX Kinase assay panel
T12 sequence (Q05397 whole entry): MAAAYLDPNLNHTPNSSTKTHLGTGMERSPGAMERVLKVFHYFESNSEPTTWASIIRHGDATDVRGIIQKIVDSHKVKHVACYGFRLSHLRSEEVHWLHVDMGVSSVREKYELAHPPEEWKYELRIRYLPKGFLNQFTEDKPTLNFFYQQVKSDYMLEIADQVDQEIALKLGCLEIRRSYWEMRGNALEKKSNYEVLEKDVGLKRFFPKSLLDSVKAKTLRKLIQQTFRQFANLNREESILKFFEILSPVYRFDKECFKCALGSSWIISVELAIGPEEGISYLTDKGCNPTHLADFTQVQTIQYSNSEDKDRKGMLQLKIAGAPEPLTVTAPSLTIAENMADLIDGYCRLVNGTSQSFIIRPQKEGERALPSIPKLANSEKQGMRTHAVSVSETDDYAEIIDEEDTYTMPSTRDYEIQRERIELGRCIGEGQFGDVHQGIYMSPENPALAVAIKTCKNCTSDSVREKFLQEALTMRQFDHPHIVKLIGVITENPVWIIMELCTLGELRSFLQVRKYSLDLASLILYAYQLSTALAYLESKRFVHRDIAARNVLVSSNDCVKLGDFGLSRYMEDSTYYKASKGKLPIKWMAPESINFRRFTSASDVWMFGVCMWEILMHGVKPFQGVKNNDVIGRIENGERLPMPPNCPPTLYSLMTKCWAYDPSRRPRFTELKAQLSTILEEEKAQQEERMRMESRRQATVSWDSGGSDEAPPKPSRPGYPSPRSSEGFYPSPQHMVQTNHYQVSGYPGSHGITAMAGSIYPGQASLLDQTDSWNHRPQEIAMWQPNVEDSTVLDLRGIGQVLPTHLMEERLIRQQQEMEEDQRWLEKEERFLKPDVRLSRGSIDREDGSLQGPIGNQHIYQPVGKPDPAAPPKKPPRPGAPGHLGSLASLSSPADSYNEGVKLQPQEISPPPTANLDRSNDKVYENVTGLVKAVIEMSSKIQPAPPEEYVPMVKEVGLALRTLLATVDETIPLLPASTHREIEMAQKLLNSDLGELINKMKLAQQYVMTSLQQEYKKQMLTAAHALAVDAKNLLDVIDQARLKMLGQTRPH
The note with it: FAK; 1 uM. The gist of the method: as §1

[13] abbreviates: kinase RSK4(Kin.Dom.1-N-terminal), read-out: % control, RSK4(Kin.Dom.1-N-terminal).
[14] abbreviates: kinase RSK4(Kin.Dom.2-C-terminal), read-out: % control, RSK4(Kin.Dom.2-C-terminal).

T9 sequence (Q9HBH9 whole entry): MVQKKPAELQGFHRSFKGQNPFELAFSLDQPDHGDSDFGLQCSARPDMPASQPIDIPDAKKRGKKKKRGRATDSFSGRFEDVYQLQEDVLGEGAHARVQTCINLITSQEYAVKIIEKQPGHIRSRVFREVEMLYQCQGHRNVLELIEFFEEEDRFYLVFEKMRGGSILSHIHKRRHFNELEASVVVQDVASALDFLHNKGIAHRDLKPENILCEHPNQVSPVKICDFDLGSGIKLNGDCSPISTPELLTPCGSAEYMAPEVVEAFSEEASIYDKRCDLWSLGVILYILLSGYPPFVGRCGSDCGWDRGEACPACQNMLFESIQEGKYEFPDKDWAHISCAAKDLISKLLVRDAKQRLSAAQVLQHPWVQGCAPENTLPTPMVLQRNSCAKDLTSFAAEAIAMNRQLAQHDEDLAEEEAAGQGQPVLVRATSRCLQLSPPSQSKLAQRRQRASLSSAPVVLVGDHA

Regarding `CC1(Nc2nc(Nc3cnn([C@H]4CCN(C5COC5)C[C@@H]4F)c3Cl)nc3[nH]cc(C#N)c23)CC1` [Example 52, 2-((5-chloro-1-((3S,4S)-3-fluoro-1-(oxetane-3-yl)piperidine-4-yl)-1H-pyrazole-4-yl)amino)((1-methylcyclopropyl)amino)-7H-pyrrolo[2,3-d]pyrimidine-5-carbonitrile], the remaining binding at 1 µM in experiment [1] came out at 56%; in experiment [2] it was 68%; in experiment [3], 99%; in [4] it was 28%; in [5] it was 37%; in experiment [6], 79%. In addition, the remaining binding at 1 µM in experiment [7] turned out to be 100%; in [8] (setting [13]), 7.1%; in experiment [8] (setting [14]), 75%; in [9], 5.5%; in [10], 100%; in experiment [11], 65%. This compound gave a remaining binding at 1 µM in experiment [12] of 0.3%.
`CCNc1nc(Nc2ccc(C(=O)N3CCC(N4CCOCC4)CC3)cc2OC)nc2[nH]cc(C(F)(F)F)c12` [Example 104, (4-((4-(ethylamino)-5-(trifluoromethyl)-7H-pyrrolo[2,3-d]pyrimidine-2-yl)amino)-3-methoxyphenyl)(4-morpholinopiperidine-1-yl)methanone]: the remaining binding at 1 µM is 100% in experiment [1]; 90% in experiment [2]; 89% in experiment [3]; 39% in [4]; 100% in [5]; 100% in [6]. For the same compound, the remaining binding at 1 µM in experiment [7] was 100%; in experiment [8] (setting [13]), 95%; in experiment [8] (setting [14]), 97%; in [9] it was 39%; in [10] it was 92%; in [11], 99%. In [12], this compound had a remaining binding at 1 µM of 3.8%.
Take `CNc1nc(Nc2ccc(C(=O)N3CCOCC3)cc2OC)nc2[nH]cc(C#N)c12` [Example 1, 2-((2-methoxy-4-(morpholine-4-carbonyl)phenyl)amino)-4-(methylamino)-7H-pyrrolo[2,3-d]pyrimidine-5-carbonitrile]: the remaining binding at 1 µM came out at 52% in [1]; 80% in [2]; 57% in experiment [3]; 60% in [4]; 84% in experiment [5]; 97% in experiment [6]. Further, the remaining binding at 1 µM was found to be 76% in [7]; 79% in experiment [8] (setting [13]); 77% in [8] (setting [14]); 31% in experiment [9]; 96% in experiment [10]; 94% in experiment [11]. Further, the remaining binding at 1 µM in experiment [12] stood at 55%.
